{
  "source": "ChEMBL document CHEMBL6078711",
  "about": "“Design, synthesis, and biological evaluation of steroidal indole derivatives as membrane-targeting antibacterial candidates” (Eur J Med Chem, 2025)",
  "key": {"[1]": {"test_system": "Staphylococcus aureus", "assay": "Antibacterial activity against methicillin-resistant Staphylococcus aureus ATCC 43300 assessed as reduction in bacterial growth", "type": "functional"}, "[2]": {"test_system": "Cell membrane", "assay": "Disruption of cell membrane integrity in Staphylococcus aureus CGMCC1.8721 assessed as increase in protein leakage at 4 times MIC", "type": "subcellular"}, "[3]": {"test_system": "Cell membrane", "assay": "Disruption of cell membrane integrity in Staphylococcus aureus CGMCC1.8721 assessed as increase in red fluorescence at 4 times MIC by SYTO 9/PI staining based confocal microscopic analysis", "type": "subcellular"}, "[4]": {"test_system": "Cell membrane", "assay": "Disruption of cell membrane integrity in Staphylococcus aureus CGMCC1.8721 assessed as appearance of wrinkled cell surface at 1 to 4 times MIC by scanning electron microscopic analysis", "type": "subcellular"}, "[5]": {"test_system": "Staphylococcus aureus", "assay": "Antibacterial activity against methicillin-resistant Staphylococcus aureus ATCC 43300 assessed as reduction in bacterial growth in presence of Fe2+", "type": "functional"}, "[6]": {"test_system": "Staphylococcus aureus", "assay": "Antibacterial activity against methicillin-resistant Staphylococcus aureus CGMCC 1.12409 assessed as reduction in bacterial growth in presence of Fe3+", "type": "functional"}, "[7]": {"test_system": "Staphylococcus aureus", "assay": "Antibiofilm activity against Staphylococcus aureus CGMCC1.8721 assessed as inhibition of biofilm formation at 8 times MIC", "type": "functional"}, "[8]": {"test_system": "HEK-293T", "assay": "Cytotoxicity against HEK293T cells upto 20 uM", "type": "toxicity, cell-based", "settings": "human"}, "[9]": {"test_system": "Staphylococcus aureus", "assay": "Bactericidal activity against methicillin-resistant Staphylococcus aureus ATCC 43300 assessed as reduction in bacterial growth", "type": "functional"}, "[10]": {"test_system": "Staphylococcus aureus", "assay": "Antibacterial activity against methicillin-resistant Staphylococcus aureus ATCC 33591 assessed as reduction in bacterial growth in presence of Ca2+", "type": "functional"}, "[11]": {"test_system": "Staphylococcus aureus", "assay": "Antibacterial activity against methicillin-resistant Staphylococcus aureus ATCC 33591 assessed as reduction in bacterial growth in presence of Fe2+", "type": "functional"}, "[12]": {"test_system": "Staphylococcus aureus", "assay": "Antibacterial activity against Staphylococcus aureus CGMCC1.8721 assessed as reduction in metabolic activity at 1 to 4 times MIC by Alamar Blue assay", "type": "functional, organism-based"}, "[13]": {"test_system": "Staphylococcus aureus", "assay": "Antibacterial activity against Staphylococcus aureus CGMCC1.8721 assessed as reduction in bacterial growth at 4 to 8 times MIC measured after 24 hrs by time kill assay", "type": "functional, organism-based"}, "[14]": {"test_system": "A549", "assay": "Cytotoxicity against human A549 cells assessed as cell viability upto 40 uM relative to control", "type": "functional", "settings": "up to 40 µM"}, "[15]": {"test_system": "Staphylococcus aureus", "assay": "Antibacterial activity against Staphylococcus aureus CGMCC1.8721 assessed as reduction in bacterial growth in presence of Fe3+", "type": "functional"}, "[16]": {"test_system": "Staphylococcus aureus", "assay": "Antibacterial activity against methicillin-resistant Staphylococcus aureus ATCC 33591 assessed as reduction in bacterial growth in presence of Na+", "type": "functional"}, "[17]": {"test_system": "Staphylococcus aureus", "assay": "Drug resistance, ratio of MIC for Staphylococcus aureus CGMCC1.8721 after 30 days exposure to MIC for Staphylococcus aureus CGMCC1.8721 during first exposure", "type": "functional"}, "[18]": {"test_system": "Cell membrane", "assay": "Induction of inner membrane permeabilization in Staphylococcus aureus CGMCC1.8721 assessed as increase in fluorescence intensity by PI staining based fluorescence analysis", "type": "subcellular"}, "[19]": {"test_system": "Staphylococcus aureus", "assay": "Antibacterial activity against Staphylococcus aureus CGMCC1.8721 assessed as reduction in bacterial growth in presence of Mg2+", "type": "functional"}, "[20]": {"test_system": "Staphylococcus aureus", "assay": "Antibacterial activity against methicillin-resistant Staphylococcus aureus CGMCC 1.12409 assessed as reduction in bacterial growth in presence of Ca2+", "type": "functional"}, "[21]": {"test_system": "Staphylococcus aureus", "assay": "Antibacterial activity against Methicillin-resistant Staphylococcus aureus CGMCC1.8721 infected in mouse skin infection model assessed as reduction in bacterial load at 5 mg/kg, sc", "type": "functional", "set-up": "scale not given: the % may be the effect or the level left"}, "[22]": {"test_system": "HepG2", "assay": "Cytotoxicity against human HepG2 cells upto 20 uM", "type": "functional, cell-based"}, "[23]": {"test_system": "Staphylococcus aureus", "assay": "Antibacterial activity against Staphylococcus aureus CGMCC1.8721 assessed as reduction in bacterial growth in presence of phosphatidylcholine", "type": "functional, organism-based"}},
  "note": "Active and inactive are the calls of the source. The calls are words filed in the database; no cut-off is given here.",
  "data": [
    {"smiles": "CCNCc1ccc2[nH]cc(C[C@@H](C)[C@H]3CC[C@H]4[C@@H]5CC[C@@H]6C[C@H](O)CC[C@]6(C)[C@H]5CC[C@]34C)c2c1", "values": [
      {"measurement": "MIC", "setting": "[1]", "value": 1, "unit": "µg/mL"},
      {"measurement": "Activity", "setting": "[2]", "value": "Active"},
      {"measurement": "Activity", "setting": "[3]", "value": "Active"},
      {"measurement": "Activity", "setting": "[4]", "value": "Active"},
      {"measurement": "MIC", "setting": "[5]", "value": 1, "unit": "µg/mL"},
      {"measurement": "MIC", "setting": "[6]", "value": 2, "unit": "µg/mL"},
      {"measurement": "inhibition (INH)", "setting": "[7]", "value": 92.4, "unit": "%"},
      {"measurement": "Activity", "setting": "[8]", "value": "Non-toxic"},
      {"measurement": "MBC", "setting": "[9]", "value": 2, "unit": "µg/mL"},
      {"measurement": "MIC", "setting": "[10]", "value": 2, "unit": "µg/mL"},
      {"measurement": "MIC", "setting": "[11]", "value": 2, "unit": "µg/mL"},
      {"measurement": "Activity", "setting": "[12]", "value": "Active"},
      {"measurement": "Activity", "setting": "[13]", "value": "Active"},
      {"measurement": "Activity", "setting": "[14]", "value": ">70", "unit": "%"},
      {"measurement": "MIC", "setting": "[15]", "value": 1, "unit": "µg/mL"},
      {"measurement": "MIC", "setting": "[16]", "value": 2, "unit": "µg/mL"},
      {"measurement": "Ratio", "setting": "[17]", "value": 64},
      {"measurement": "Activity", "setting": "[18]", "value": "Dose-dependent-effect"},
      {"measurement": "MIC", "setting": "[19]", "value": 1, "unit": "µg/mL"},
      {"measurement": "MIC", "setting": "[20]", "value": 2, "unit": "µg/mL"},
      {"measurement": "Activity", "setting": "[21]", "value": 67, "unit": "%"},
      {"measurement": "Activity", "setting": "[22]", "value": "Active"},
      {"measurement": "Activity", "setting": "[23]", "value": "inactive"}
    ]}
  ]
}
